# Reference: PubChem BioAssay AID212 (DTP/NCI, 2004)
# “And” between values parts separate entries of the source, which are not always exact repeats. Identical values can stand only once. Records with an inconclusive call do not appear.
# Tested on: BDF1 mice, colon carcinoma 38 sc, T/C %
# Test: NCI In Vivo Anticancer Drug Screen. Data for tumor model Colon Carcinoma 38 (subcutaneous) in B6D2F1 (BDF1) mice
# Settings: endpoint: median tumor weight (est.), higher = larger tumour
# Procedure, shortened: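 Transplantable tumor in mice; compound-treated vs vehicle-dosed controls. Measured survival or tumor size; value = T ÷ C.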
# [1] = dose: 25.0 mg/kg/injection, schedule: Q07DX002 (ip), vehicle: saline with Tween-80
# [2] = dose: 50.0 mg/kg/injection, schedule: Q07DX002 (ip), vehicle: saline with Tween-80
# [3] = dose: 100.0 mg/kg/injection, schedule: Q07DX002 (ip), vehicle: saline with Tween-80
# [4] = dose: 200.0 mg/kg/injection, schedule: Q07DX002 (ip), vehicle: saline with Tween-80
# [5] = dose: 25.0 mg/kg/injection, schedule: Q07DX002 (ip), vehicle: saline
# [6] = dose: 100.0 mg/kg/injection, schedule: Q07DX002 (ip), vehicle: saline
structure (smiles),measurement,setting,value
CCCCOCN(COCCCC)C12CC3CC(CC(C3)C1)C2,T/C,[1],93 % of control
same,T/C,[2],73 % of control
same,T/C,[3],120 % of control
same,T/C,[4],69 % of control
O=Cc1ccc(C(Cl)(Cl)Cl)cc1,T/C,"dose: 12.5 mg/kg/injection, schedule: Q07DX002 (ip), vehicle: saline with Tween-80",47 % of control
same,T/C,"dose: 12.5 mg/kg/injection, schedule: Q07DX002 (ip), vehicle: saline",78 % of control
same,T/C,[1],74 % of control
same,T/C,[5],79 % of control
same,T/C,"dose: 50.0 mg/kg/injection, schedule: Q07DX002 (ip), vehicle: saline",74 % of control
same,T/C,[3],93 % of control
same,T/C,[6],88 % of control
same,T/C,[4],66 % of control
same,T/C,"dose: 200.0 mg/kg/injection, schedule: Q07DX002 (ip), vehicle: saline",67 % of control
same,T/C,"dose: 400.0 mg/kg/injection, schedule: Q07DX002 (ip), vehicle: saline",82 % of control
O=S(=O)(O)O.[NH-]C1CCCCC1[NH-].[Pt+2] (stereo unspecified),T/C,"dose: 0.31 mg/kg/injection, schedule: Q07DX002 (ip), vehicle: dextrose",56 % of control
same,T/C,"dose: 0.62 mg/kg/injection, schedule: Q07DX002 (ip), vehicle: dextrose",82 % of control
same,T/C,"dose: 0.63 mg/kg/injection, schedule: Q07DX002 (ip), vehicle: dextrose",80 % of control
same,T/C,"dose: 0.63 mg/kg/injection, schedule: Q07DX003 (ip), vehicle: dextrose",51 % of control
same,T/C,"dose: 1.25 mg/kg/injection, schedule: Q07DX002 (ip), vehicle: dextrose",41 % of control
same,T/C,"dose: 1.25 mg/kg/injection, schedule: Q07DX003 (ip), vehicle: dextrose",76 % of control
same,T/C,"dose: 2.5 mg/kg/injection, schedule: Q07DX002 (ip), vehicle: dextrose",19 % of control and 36 % of control
same,T/C,"dose: 5.0 mg/kg/injection, schedule: Q07DX002 (ip), vehicle: dextrose",21 % of control
same,T/C,"dose: 5.0 mg/kg/injection, schedule: Q07DX003 (ip), vehicle: dextrose",29 % of control
same,T/C,"dose: 10.0 mg/kg/injection, schedule: Q07DX002 (ip), vehicle: dextrose",9 % of control
COc1cc(C(=O)c2cc3c(cc2C)OCO3)cc(OC)c1OC,T/C,"dose: 12.5 mg/kg/injection, schedule: Q07DX002 (ip), vehicle: Klucel (hydroxypropylcellulose) (HPC)",77 % of control
same,T/C,"dose: 25.0 mg/kg/injection, schedule: Q07DX002 (ip), vehicle: Klucel (hydroxypropylcellulose) (HPC)",75 % of control and 84 % of control
same,T/C,"dose: 50.0 mg/kg/injection, schedule: Q07DX002 (ip), vehicle: Klucel (hydroxypropylcellulose) (HPC)",112 % of control and 95 % of control
same,T/C,"dose: 200.0 mg/kg/injection, schedule: Q07DX002 (ip), vehicle: Klucel (hydroxypropylcellulose) (HPC)",79 % of control and 102 % of control
Cc1[nH]c(=O)[nH]c(=O)c1N(CCF)CCCl,T/C,"dose: 16.0 mg/kg/injection, schedule: Q07DX002 (ip), vehicle: Klucel (hydroxypropylcellulose) (HPC)",69 % of control and 71 % of control
same,T/C,"dose: 32.0 mg/kg/injection, schedule: Q07DX002 (ip), vehicle: Klucel (hydroxypropylcellulose) (HPC)",67 % of control and 79 % of control and 82 % of control
same,T/C,"dose: 64.0 mg/kg/injection, schedule: Q07DX002 (ip), vehicle: Klucel (hydroxypropylcellulose) (HPC)",38 % of control
same,T/C,"dose: 64.0 mg/kg/injection, schedule: Q07DX003 (ip), vehicle: Klucel (hydroxypropylcellulose) (HPC)",21 % of control and 28 % of control
CCOC(=O)c1[nH]c2cccc3c2c1CC(Br)C3=O (stereo unspecified),T/C,[1],120 % of control
same,T/C,[2],92 % of control
same,T/C,[3],90 % of control
same,T/C,[4],78 % of control
CNC(=O)ON(C(C)=O)C(=O)NC,T/C,[5],87 % of control and 106 % of control
same,T/C,[6],103 % of control
COc1cc2c(cc1O)N=C[C@@H]1CCC(O)N1C2=O (mixture of isomers),T/C,"dose: 1.0 mg/kg/injection, schedule: Q07DX002 (ip), vehicle: saline",72 % of control and 78 % of control
same,T/C,"dose: 1.1 mg/kg/injection, schedule: Q07DX002 (ip), vehicle: distilled water + Tween-80",62 % of control
same,T/C,"dose: 2.2 mg/kg/injection, schedule: Q07DX002 (ip), vehicle: distilled water + Tween-80",85 % of control
same,T/C,"dose: 4.0 mg/kg/injection, schedule: Q07DX002 (ip), vehicle: saline",121 % of control and 105 % of control
same,T/C,"dose: 4.5 mg/kg/injection, schedule: Q07DX002 (ip), vehicle: distilled water + Tween-80",76 % of control
same,T/C,"dose: 8.0 mg/kg/injection, schedule: Q07DX002 (ip), vehicle: saline",81 % of control and 82 % of control
same,T/C,"dose: 9.0 mg/kg/injection, schedule: Q07DX002 (ip), vehicle: distilled water + Tween-80",66 % of control
same,T/C,"dose: 16.0 mg/kg/injection, schedule: Q07DX002 (ip), vehicle: saline",60 % of control
